Experimental data: US20260166122A1, “USE OF MICROPEPTIDE MIAC” (NANJING ANJI BIOTECHNOLOGY CO., LTD, priority 2023, published 2026)
Where two headings read alike, the source gives them in different places. Marks after values point to notes of the source that are not given here. Ends that are not written are not given here.

Key:
Type in all cases: cell-based
Conditions in all cases: 72 h
[1] = test system: human diffuse large B-cell lymphoma cells WSU-DLCL2
Method: (§1) Human pancreatic cancer, hepatocellular carcinoma, colorectal cancer, ovarian cancer, cervical cancer, bladder cancer, melanoma, glioblastoma, neuroblastoma, glioma, osteosarcoma, myeloma, lymphoma, hematologic malignancies, and cholangiocarcinoma cells were cultured in an incubator at 37° C. with 5% CO2 until the density reached 90%, then digested and collected with trypsin, resuspended in a culture medium, and counted under a microscope; the cell concentration was adjusted to about 1.0×10^5 cells/mL; and the cell suspension was inoculated into a 96-well plate, with 100 μL per well, and incubated overnight in an incubator at 37° C. with 5% CO2. After the cells were completely attached to the wall, 100 μL of micropeptides MIAC with concentrations of 50 μM, 100 μM and 200 μM were added to form an administration group; and a culture medium without any medicament was used as a negative control group. After continuing incubation for 72 h, 100 μL of CCK8 was added to each well of the 96-well plate for dissolving. The absorbance OD was measured at a detection wavelength of 450 nm with a microplate reader, and the proliferation inhibition (PI) was calculated using the formula of PI (%)=1-administration group/negative control group. The experiment was repeated 3 times independently, the results were expressed as Mean±SD, and a statistical T test was performed, where *P<0.05 indicated a significant difference and **P<0.01 indicated an extremely significant difference.

[2] = test system: human colon cancer cells LOVO
Method: as §1

[3] = test system: human malignant melanoma cells SK-mel-2
Method: as §1

[4] = test system: human monocytic leukemia cells Thp-1
Method: as §1

[5] = test system: human colon cancer cells SW480
Method: as §1

[6] = test system: human T-cell acute lymphoblastic leukemia cells JurKat
Method: as §1

[7] = test system: human ovarian cancer cells SKOV3
Method: as §1

[8] = test system: human myeloma cells ARP-1
Method: as §1

[9] = test system: human hepatocellular carcinoma cells SMMC-7721
Method: as §1

[10] = test system: human histiocytic lymphoma cells U937
Method: as §1

[11] = test system: human diffuse large B-cell lymphoma cells U2932
Method: as §1

[12] = test system: human cervical cancer cells SIHA
Method: as §1

[13] = test system: human pancreatic cancer cells PANC-1
Method: as §1

[14] = test system: human mantle cell lymphoma cells JeKo-1
Method: as §1

[15] = test system: human bladder transitional cell carcinoma cells T24
Method: as §1

[16] = test system: human malignant melanoma cells A375
Method: as §1

[17] = test system: human myeloid leukemia cells HL60
Method: as §1

[18] = test system: human colon cancer cells HCT-116
Method: as §1

[19] = test system: human hepatocellular carcinoma cells HCCLM3
Method: as §1

[20] = test system: human chronic myeloid leukemia cells K562
Method: as §1

[21] = test system: human cerebral astrocytic glioblastoma cells U87-MG
Method: as §1

[22] = test system: human hepatocellular carcinoma cells QGY-7701
Method: as §1

[23] = test system: human malignant melanoma cells M14
Method: as §1

## MERAGVPGFSPRRSSVEAKMQSTSCSVRKSSTVTAWPAVVLLLSWGQRRGG [MIAC, micropeptide inhibiting actin cytoskeleton]
[1]; WSU-DLCL2, 50 μM
  OD: 0.908 ± 0.061
[1]; WSU-DLCL2, 100 μM
  OD: 0.684 ± 0.039**
[1]; WSU-DLCL2, 200 μM
  OD: 0.264 ± 0.056**
[2]; 50 μM
  OD: 1.148 ± 0.008**
[2]; 100 μM
  OD: 0.970 ± 0.021**
[2]; 200 μM
  OD: 0.624 ± 0.026**
[3]; SK-mel-2, 50 μM
  OD: 1.302 ± 0.043**
[3]; SK-mel-2, 100 μM
  OD: 0.822 ± 0.060**
[3]; SK-mel-2, 200 μM
  OD: 0.570 ± 0.011**
[4]; Thp-1, 50 μM
  OD: 1.265 ± 0.059
[4]; Thp-1, 100 μM
  OD: 0.841 ± 0.058**
[4]; Thp-1, 200 μM
  OD: 0.681 ± 0.045**
[5]; SW480, 50 μM
  OD: 0.640 ± 0.032**
[5]; SW480, 100 μM
  OD: 0.283 ± 0.007**
[5]; SW480, 200 μM
  OD: 0.147 ± 0.016**
[6]; 50 μM
  OD: 0.984 ± 0.032
[6]; 100 μM
  OD: 0.730 ± 0.032**
[6]; 200 μM
  OD: 0.559 ± 0.038**
[7]; SKOV3, 50 μM
  OD: 1.244 ± 0.282**
[7]; SKOV3, 100 μM
  OD: 0.843 ± 0.049**
[7]; SKOV3, 200 μM
  OD: 0.727 ± 0.038**
[8]; ARP-1, 50 μM
  OD: 0.985 ± 0.008
[8]; ARP-1, 100 μM
  OD: 0.692 ± 0.047**
[8]; ARP-1, 200 μM
  OD: 0.433 ± 0.013**
[9]; SMMC-7721, 50 μM
  OD: 1.292 ± 0.012
[9]; SMMC-7721, 100 μM
  OD: 1.032 ± 0.011**
[9]; SMMC-7721, 200 μM
  OD: 0.674 ± 0.033**
[10]; U937, 50 μM
  OD: 1.069 ± 0.028
[10]; U937, 100 μM
  OD: 0.821 ± 0.047**
[10]; U937, 200 μM
  OD: 0.684 ± 0.046**
[11]; U2932, 50 μM
  OD: 0.426 ± 0.019**
[11]; U2932, 100 μM
  OD: 0.275 ± 0.038**
[11]; U2932, 200 μM
  OD: 0.167 ± 0.025**
[12]; 50 μM
  OD: 0.844 ± 0.099**
[12]; 100 μM
  OD: 0.755 ± 0.103**
[12]; 200 μM
  OD: 0.261 ± 0.052**
[13]; PANC-1, 50 μM
  OD: 1.027 ± 0.073
[13]; PANC-1, 100 μM
  OD: 0.708 ± 0.043**
[13]; PANC-1, 200 μM
  OD: 0.427 ± 0.02**
[14]; JeKo-1, 50 μM
  OD: 1.174 ± 0.027
[14]; JeKo-1, 100 μM
  OD: 0.820 ± 0.078**
[14]; JeKo-1, 200 μM
  OD: 0.496 ± 0.052**
[15]; T24, 50 μM
  OD: 1.125 ± 0.010
[15]; T24, 100 μM
  OD: 0.730 ± 0.085**
[15]; T24, 200 μM
  OD: 0.364 ± 0.043**
[16]; A375, 50 μM
  OD: 1.310 ± 0.069**
[16]; A375, 100 μM
  OD: 1.194 ± 0.043**
[16]; A375, 200 μM
  OD: 0.911 ± 0.071**
[17]; HL60, 50 μM
  OD: 1.378 ± 0.029**
[17]; HL60, 100 μM
  OD: 0.725 ± 0.027**
[17]; HL60, 200 μM
  OD: 0.549 ± 0.023**
[18]; HCT-116, 50 μM
  OD: 1.253 ± 0.019**
[18]; HCT-116, 100 μM
  OD: 0.976 ± 0.038**
[18]; HCT-116, 200 μM
  OD: 0.688 ± 0.047**
[19]; HCCLM3, 50 μM
  OD: 1.420 ± 0.054
[19]; HCCLM3, 100 μM
  OD: 0.981 ± 0.019**
[19]; HCCLM3, 200 μM
  OD: 0.706 ± 0.041**
[20]; K562, 50 μM
  OD: 1.004 ± 0.012**
[20]; K562, 100 μM
  OD: 0.544 ± 0.062**
[20]; K562, 200 μM
  OD: 0.338 ± 0.025**
[21]; 50 μM
  OD: 0.951 ± 0.019
[21]; 100 μM
  OD: 0.785 ± 0.029**
[21]; 200 μM
  OD: 0.656 ± 0.030**
[22]; QGY-7701, 50 μM
  OD: 1.185 ± 0.018**
[22]; QGY-7701, 100 μM
  OD: 0.785 ± 0.030**
[22]; QGY-7701, 200 μM
  OD: 0.520 ± 0.019**
[23]; M14, 50 μM
  OD: 1.585 ± 0.030
[23]; M14, 100 μM
  OD: 1.046 ± 0.060**
[23]; M14, 200 μM
  OD: 0.639 ± 0.046**
